Consider 5 compounds from patent US10188666B2, “Dendrogenin A and antineoplastic agents for the treatment of chemosensitive or chemoresistant tumors” (priority 2013, dated 2019).

Each structure is given as a SMILES string. Like-named read-outs stand apart in the source and are kept apart here.

In one data set the test system is KG1 cells. Description: MTT cell viability assay, KG1 cells. Format: cell-based. The conditions noted are these: 48 hours. The protocol:
(§1) Briefly, effect of drugs alone and in combinations were determined for a 3-5 log scale of concentrations of drugs and with a constant ratio between the two drugs used for co-treatment. Cells were seeded in 96-well plates (50 000 cell/well). Cells were treated just after seeding, for 48 hours. Cell viability was determined with MTT assay. Cells were centrifuged 5 minutes at 1200 rpm, medium removed, 100 μl of MTT solution (1 mg/ml in PBS) added, incubated for 2 hours at 37° C., centrifuged, MTT solution removed and DMSO (100 μl) added to dissolve purple formazan formed by living cells. Absorbance of the solution was determined at 540 nm.
(§2) HL60, KG1, KG1a and MV4-11 cells were seeded in 96-well plates (50 000 cells/well). Cells were treated just after seeding with increasing doses of daunorubicin, for 48 hours. Cell viability was determined with MTT assay as follows: cells were centrifuged 5 minutes at 1200 rpm, medium removed, 100 μl of MTT solution (1 mg/ml in PBS) added, incubated for 2 hours at 37° C., centrifuged, MTT solution removed and DMSO (100 μl) added to dissolve purple formazan formed by living cells. Absorbance of the solution was determined at 540 nm.
(§3) HL60, KG1, KG1a and MV4-11 cells were seeded in 96-well plates (50 000 cells/well). Cells were treated just after seeding with increasing doses of cytarabine, for 48 hours.
(§4) HL60, KG1, KG1a and MV4-11 cells were seeded in 96-well plates (50 000 cells/well).
(§5) HL60, KG1, KG1a and MV4-11 cells were seeded in 96-well plates (50 000 cells/well). Cells were treated just after seeding with increasing doses of cisplatin, for 48 hours.
(§6) HL60, KG1, KG1a and MV4-11 cells were seeded in 96-well plates (50 000 cells/well). Cells were treated just after seeding with increasing doses of Dendrogenin A, for 48 hours.
(§7) KG1 cells were seeded in 96-well plates (50 000 cells/well).
as §7, §7
KG1 cells were seeded in 96-well plates (50 000 cells/well). Cells were treated just after seeding with increasing doses of Dendrogenin A and Cisplatin, for 48 hours.
as §7
KG1 cells were seeded in 96-well plates (50 000 cells/well). Cells were treated just after seeding with increasing doses of Dendrogenin A and arsenic trioxide, for 48 hours.
as §7

The subject of a further data set is HL60 cells. The data set can be described thus: MTT cell viability assay, HL60 cells. Format: cell-based. The procedure: as §1, §2, §3, §4, §5, §6
(§8) HL60 cells were seeded in 96-well plates (50 000 cells/well).
HL60 cells were seeded in 96-well plates (50 000 cells/well). Cells were treated just after seeding with increasing doses of Dendrogenin A and Cisplatin, for 48 hours.
as §8
HL60 cells were seeded in 96-well plates (50 000 cells/well). Cells were treated just after seeding with increasing doses of Dendrogenin A and arsenic trioxide, for 48 hours.
as §8

The next data set deals with MV4-11 cells. Description: MTT cell viability assay, MV4-11 cells. The conditions noted are these: for sensitivity of MV4-11 cells (cell viability, in words): single agent. The format is cell-based. The protocol:
as §1, §2, §3, §4, §5, §6
(§9) MV4-11 cells were seeded in 96-well plates (50 000 cells/well).
as §9

The next data set has as its system KG1a cells. Description: MTT cell viability assay, KG1a cells. Format: cell-based. The conditions noted are these: for sensitivity of KG1a cells compared to KG1 cells (cell viability, in words): single agent. The protocol:
as §1, §2, §3, §4, §5, §6
(§10) KG1a cells were seeded in 96-well plates (50 000 cells/well).
as §10
KG1a cells were seeded in 96-well plates (50 000 cells/well). […]

For data set [1], the system named is drug sensitive cancer cell line KG1. The data set can be described thus: Cytotoxic activity, Trypan blue counting, KG1 cells. The conditions noted are these: for cytotoxic activity of the antineoplastic agent alone: KG1, Daunorubicin 0.05-0.5 μM or cytarabine 0.1-1 μM, 48 hours. The procedure: In a 6-microwell plate was seeded 0.5.10^6 cells of KG1 cell line. […] Then, Daunorubicin (final concentration: 0.05, 0.1, 0.25 and 0.5 μM) or cytarabine (final concentration: 0.1, 0.2, 0.5 and 1 μM) were added to […]. After the cells were cultured for additional 48 hours, culture suspensions were centrifuged and cell pellets were resuspended in the Trypan blue solution (0.25% (w/v) in PBS) and counted in a Malassez cell under a light microscope.

Data set [2] relates to chemoresistant cancer cell line KG1a. The data set can be described thus: Cell death induction, Trypan blue counting, KG1a cells. Format: cell-based. To be noted: 48 hours; for cell death induction by the antineoplastic agent alone: KG1a, Daunorubicin 0.5 μM or cytarabine 1 μM. The protocol: In a 6-microwell plate was seeded 0.5·10^6 cells of KG1a cell line. The same day, Solvant vehicule or different concentrations of Dendrogenin A (final concentrations: 5 and 10 μM) alone or in combination with Daunorubicin (final concentration: 0.5 μM) or cytarabine (final concentration: 1 μM) were added into the well. After 48 hours of incubation, the cells suspensions were centrifuged and cell pellets were resuspended in the Trypan blue solution (0.25% (w/v) in PBS) and counted in a Malassez cell under a light microscope.

A further data set deals with AML patient cells. Description: Cell death of AML patient samples, Annexin V-FitC/7-AAD flow cytometry. Format: cell-based. To be noted: Dendrogenin A 5 μM alone, 48 hours. The procedure:
In a 6-microwell plate were seeded 0.5.10^6 patient cells. The same day, Solvant vehicle or different concentrations of Dendrogenin A (final concentrations: 5 μM) alone or in combination with Daunorubicin (final concentration: 10 nM) were added into the well. After 48 hours of incubation, the cells suspensions were centrifuged and washed with PBS and cell pellets were resuspended in a labeling solution containing Annexin V-FitC and 7-AAD as described in the kit protocol (Annexin V-FitC/7-AAD staining kit, Roche Applied Science). Cells were then incubated for 15 minutes at room temperature in the dark and analyzed by Facs Flow cytometry.

The target of data set [3] is cholesterol epoxide hydrolase (Homo sapiens, UniProt Q15125). To be noted: de Medina et al., Nature Communications, 2013; cited from earlier work.
cholesterol epoxide hydrolase, sequence (Q15125 whole entry): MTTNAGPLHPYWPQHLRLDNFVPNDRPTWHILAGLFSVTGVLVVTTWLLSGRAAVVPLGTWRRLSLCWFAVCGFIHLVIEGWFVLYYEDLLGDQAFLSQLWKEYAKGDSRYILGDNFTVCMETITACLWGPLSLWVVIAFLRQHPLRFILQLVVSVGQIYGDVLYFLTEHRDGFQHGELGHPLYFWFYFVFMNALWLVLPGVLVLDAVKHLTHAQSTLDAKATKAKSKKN
[4] abbreviates: Homo sapiens, KG-1, KG1 cell line.
Setting [5] is: Homo sapiens, KG-1a, KG1a cell line, 48 hours, MTT, read-out: IC 50.

For `O=c1[nH]cc(F)c(=O)[nH]1` [5-Fluorouracil], the IC50 came to 756 µM in the data set with KG1 cells (setting [4]); 2450 µM in the data set with HL60 cells (Homo sapiens, HL-60, 48 h); 2160 µM with MV4-11 cells (Homo sapiens, MV4-11, 48 h); 3.99 µM in the data set on KG1a cells (Homo sapiens, KG-1a, 48 h, heading: IC 50, KG1a cell line, 48 hours, MTT, read-out: IC 50). Further, the “sensitivity of HL60 cells (cell viability, in words)” value (“sensitivity of HL60 cells” for short) in the data set on HL60 cells (single agent, 48 hours, MTT) was “more resistant to 5-FU compared to Daunorubicin or Cytarabine”. In the data set on MV4-11 cells (48 hours, MTT), the “sensitivity of MV4-11 cells (cell viability, in words)” value (“sensitivity of MV4-11 cells” below) is “more resistant to 5-FU compared to Daunorubicin or Cytarabine”. Also, the “sensitivity of KG1a cells compared to KG1 cells (cell viability, in words)” value in the data set with KG1a cells (48 hours, MTT) is recorded as “resistant”.
For the compound `N.N.[Cl][Pt][Cl]` [Cisplatin], the IC50 with KG1 cells (KG1 cell line) stood at 3.29 µM; in the data set with HL60 cells (read-out: IC 50), 3.29 µM; with MV4-11 cells (MV4-11 cell line, 48 hours, MTT, read-out: IC 50), 7.2 µM; in the data set on KG1a cells (KG1a cell line, 48 hours, MTT, read-out: IC 50) it was 9.59 µM. Also, the “sensitivity of HL60 cells” value in the data set on HL60 cells was “as sensible to Cisplatin as to Daunorubicin and Cytarabine”. In the data set with MV4-11 cells (48 hours, MTT), the “sensitivity of MV4-11 cells” value is recorded as “more resistant to Cisplatin compared to Daunorubicin or Cytarabine”. In addition, the “sensitivity of KG1a cells compared to KG1 cells (cell viability, in words)” value in the data set with KG1a cells (48 hours, MTT) was “resistant”.
For the compound `Nc1ccn([C@@H]2O[C@H](CO)[C@@H](O)[C@@H]2O)c(=O)n1` [Cytarabine], the IC50 in the data set on KG1 cells (setting [4]) turned out to be 0.34 µM; with HL60 cells (Homo sapiens, HL-60, 48 h), 0.16 µM; in the data set on MV4-11 cells (Homo sapiens, MV4-11, 48 h), 0.18 µM; with KG1a cells (setting [5]) it was 1.53 µM. Further, the “sensitivity of HL60 cells” value in the data set with HL60 cells (single agent, 48 hours, MTT) is recorded as “more sensitive than KG1 cells”. Besides, the “sensitivity of MV4-11 cells” value in the data set on MV4-11 cells (48 hours, MTT) is on record as “more sensitive than KG1 cells”. The “cytotoxic activity of the antineoplastic agent alone” value in data set [1] is reported as “sensitive”. Further, the “cell death induction by the antineoplastic agent alone” value in data set [2] is given as “resistant”. The “sensitivity of KG1a cells compared to KG1 cells (cell viability, in words)” value in the data set with KG1a cells (48 hours, MTT) was “resistant”.
Regarding `COc1cccc2c1C(=O)c1c(O)c3c(c(O)c1C2=O)C[C@@](O)(C(C)=O)C[C@@H]3O[C@H]1C[C@H](N)[C@H](O)[C@H](C)O1` [Daunorubicin], the IC50 in the data set on KG1 cells (setting [4]) was determined as 0.064 µM; with HL60 cells (Homo sapiens, HL-60, 48 h) it was 0.062 µM; with MV4-11 cells (Homo sapiens, MV4-11, 48 h) it was 0.067 µM; with KG1a cells (Homo sapiens, KG-1a, 48 h), 1.08 µM. In addition, the “sensitivity of HL60 cells” value with HL60 cells is recorded as “as sensitive as KG1 cells”. Also, the “sensitivity of MV4-11 cells” value with MV4-11 cells (48 hours, MTT) is “as sensitive as KG1 cells”. The “cytotoxic activity of the antineoplastic agent alone” value in data set [1] was “sensitive”. The “cell death induction by the antineoplastic agent alone” value in data set [2] is on record as “resistant”. For the same compound, the “sensitivity of KG1a cells compared to KG1 cells (cell viability, in words)” value with KG1a cells (48 hours, MTT) is on record as “resistant”.
As for `CC(C)CCC[C@@H](C)[C@H]1CC[C@H]2[C@@H]3C[C@@H](NCCc4cnc[nH]4)[C@@]4(O)C[C@@H](O)CC[C@]4(C)[C@H]3CC[C@]12C` [Dendrogenin A, 5α-hydroxy-6β-[2-(1H-imidazol-4-yl)ethylamino]cholestan-3β-ol], in the data set with AML patient cells, the “cell death rate of tumor cells resistant to Daunorubicin” value is “high or moderate cell death rate”. For the same compound, the IC50 was found to be 8.86 µM in the data set with KG1 cells (setting [4]); 8.06 µM with HL60 cells (Homo sapiens, HL-60, HL60 cell line, 48 hours, MTT, read-out: IC 50); 7.27 µM with MV4-11 cells (Homo sapiens, MV4-11 cell line, 48 hours, MTT, read-out: IC 50); 13.2 µM in the data set with KG1a cells (setting [5]). The “sensitivity of HL60 cells” value in the data set with HL60 cells (single agent, 48 hours, MTT) was “as sensitive as KG1 or KG1a cells”. In the data set with MV4-11 cells (48 hours, MTT), the “sensitivity of MV4-11 cells” value is “as sensitive as KG1 or KG1a cells”. For the same compound, the “effect on sensibility of KG1 cells to Daunorubicin” value in data set [1] (Dendrogenin A 2.5 μM for 24 hours, then Daunorubicin 0.05-0.5 μM for 48 hours) is on record as “able to increase this sensibility”. Moreover, the “effect on sensibility of KG1 cells to Cytarabine” value in data set [1] (Dendrogenin A 2.5 μM for 24 hours, then cytarabine 0.1-1 μM for 48 hours) is listed as “able to increase this sensibility”. Moreover, the “effect on resistance of KG1a cells to Daunorubicin” value in data set [2] (Dendrogenin A 5 and 10 μM with Daunorubicin 0.5 μM) is “able to abolish this resistance”. The “effect on resistance of KG1a cells to Cytarabine” value in data set [2] (Dendrogenin A 5 and 10 μM with cytarabine 1 μM) was “able to abolish this resistance”. In addition, the “sensitivity of KG1a cells compared to KG1 cells (cell viability, in words)” value in the data set on KG1a cells (48 hours, MTT) is recorded as “as sensitive as KG1 cells”. Further, in data set [3], the “inhibition of cholesterol epoxide hydrolase” value is recorded as “selective inhibitor”.
